Tests used:
[1] = target: T1, wild type PKR (Homo sapiens, UniProt P30613); assay: PKR (wild type) enzyme AC50 assay, LDH/NADH-coupled, absorbance at 340 nm; assay type: biochemical; details: Table 4; AC50, enzyme assay; read-out: PKR WT
Method in brief: (§1)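 LDH/NADH-coupled read-out at 340 nm after ADP (0.2-1.65 mM) addition at room temperature. Beforehand, wild-type, K410E or R510Q human PKR (40-400 ng/well) sat 60 min with compound (top 100 μM, 3-fold, 11 points) plus PEP 0.1-0.5 mM, 180 μM NADH in 50 mM Tris pH 7.5, 100 mM KCl, 5 mM MgCl2, 1 mM DTT, 0.03% BSA.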

[2] = target: PKR K410E (Homo sapiens, UniProt P30613, K410E); assay: PKR mutant assay (K410E), AC50, LDH/NADH-coupled, absorbance at 340 nm; assay type: biochemical; details: Table 4; AC50, enzyme assay
Method in brief: as §1

[3] = target: PKR R510Q (Homo sapiens, UniProt P30613, R510Q); assay: PKR mutant assay (R510Q), AC50, LDH/NADH-coupled, absorbance at 340 nm; assay type: biochemical; details: Table 4; AC50, enzyme assay; read-out: PK R510Q
Method in brief: as §1

[4] = target: T1, wild type PKR; assay: Cell based ATP assay in purified red blood cells (Cell-Titer-Glo); parameters: endogenous in cells; host or cells: purified red blood cells from healthy volunteers; details: Table 4; AC50, RBCs, overnight at 37° C., ATP levels
Method in brief: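 ATP levels were quantified by Cell-Titer-Glo after overnight 37 °C exposure of cells to compound (1:4 dilution series, 0.1% DMSO final). The cells were human erythrocytes, filter-purified to remove leukocytes and plated at 1×10^7 cells/mL in AGAM medium.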

Sequence of PKR R510Q (P30613 whole entry R510Q): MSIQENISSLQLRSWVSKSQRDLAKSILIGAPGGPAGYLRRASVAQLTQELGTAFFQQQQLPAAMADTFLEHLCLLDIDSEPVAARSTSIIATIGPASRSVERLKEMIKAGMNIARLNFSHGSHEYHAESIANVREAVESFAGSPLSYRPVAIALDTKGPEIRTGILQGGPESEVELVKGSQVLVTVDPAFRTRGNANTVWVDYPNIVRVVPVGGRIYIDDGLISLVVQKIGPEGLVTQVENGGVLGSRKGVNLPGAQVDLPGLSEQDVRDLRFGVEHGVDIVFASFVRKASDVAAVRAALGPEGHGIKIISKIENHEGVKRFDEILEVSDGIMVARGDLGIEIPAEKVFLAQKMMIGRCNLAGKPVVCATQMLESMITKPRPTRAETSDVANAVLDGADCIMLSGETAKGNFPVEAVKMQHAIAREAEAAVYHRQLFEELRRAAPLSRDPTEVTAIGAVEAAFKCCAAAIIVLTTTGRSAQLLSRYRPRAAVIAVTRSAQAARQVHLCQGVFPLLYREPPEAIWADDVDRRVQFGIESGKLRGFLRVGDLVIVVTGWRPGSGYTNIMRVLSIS
T1 sequence (P30613 whole entry): as the sequence (P30613 whole entry R510Q) above, with Q510R counted along it
Sequence of PKR K410E (P30613 whole entry K410E): as the sequence (P30613 whole entry R510Q) above, with K410E, Q510R counted along it

EC50 [1] [nM] | EC50 [2] [nM] | EC50 [3] [nM] | EC50 [4] [nM] | Structure (SMILES)
> 800 | > 800 | > 800 | ≤ 1000 | Cn1c2nc(Cc3ccns3)sc2c2cnn(Cc3cccc4[nH]ncc34)c(=O)c21 [Compound 209]
< 300 | < 300 | < 300 | ≤ 1000 | Cn1c2nc(Cc3cncs3)sc2c2cnn(Cc3cccc4[nH]ncc34)c(=O)c21 [Compound 211]
< 300 | < 300 | < 300 | ≤ 1000 | COc1cc(Cc2nc3c(s2)c2cnn(Cc4cccc5[nH]ncc45)c(=O)c2n3C)ccn1 [Compound 215]
< 300 | < 300 | < 300 | ≤ 1000 | Cn1c2nc(Cc3cscn3)sc2c2cnn(Cc3cccc4[nH]ncc34)c(=O)c21 [Compound 227]
< 300 | < 300 | < 300 | ≤ 1000 | Cn1c2nc(Cc3ccc[nH]c3=O)sc2c2cnn(Cc3cccc4[nH]ncc34)c(=O)c21 [Compound 228]
< 300 | < 300 | < 300 | ≤ 1000 | Cn1c2nc(Cc3n[nH]cc3F)sc2c2cnn(Cc3cccc4[nH]ncc34)c(=O)c21 [Compound 236]
301 to 800 | > 800 | 301 to 800 | ≤ 1000 | Cn1c2nc(Cc3cnco3)sc2c2cnn(Cc3cccc4[nH]ncc34)c(=O)c21 [Compound 240]
< 300 | < 300 | < 300 | ≤ 1000 | Cn1c2nc(Cc3cccc4cn[nH]c34)sc2c2cnn(Cc3cc[nH]n3)c(=O)c21 [Compound 241]
301 to 800 | 301 to 800 | < 300 | ≤ 1000 | Cn1c2nc(Cc3cccc4[nH]c(=O)[nH]c34)sc2c2cnn(Cc3cccc4[nH]ncc34)c(=O)c21 [Compound 245]
< 300 | < 300 | < 300 | ≤ 1000 | Cn1c2nc(Cc3cc[nH]n3)sc2c2cnn(Cc3cccc4[nH]c(=O)[nH]c34)c(=O)c21 [Compound 252]
< 300 | < 300 | < 300 | ≤ 1000 | Cn1c2nc(Cc3cc[nH]n3)sc2c2cnn(Cc3cccc4c3CNC4)c(=O)c21 [Compound 253]
< 300 | < 300 | < 300 | ≤ 1000 | Cn1ccc(Cn2ncc3c4sc(Cc5cccc6cn[nH]c56)nc4n(C)c3c2=O)n1 [Compound 258]
< 300 | < 300 | < 300 | ≤ 1000 | Cn1c2nc(Cc3cscn3)sc2c2cnn(Cc3ccccc3)c(=O)c21 [Compound 270]

More lines, now with the values behind:

Structure (SMILES) | EC50 [1] [nM] | EC50 [2] [nM] | EC50 [3] [nM] | EC50 [4] [nM]
COc1ncc(Cc2nc3c(s2)c2cnn(Cc4cccc5[nH]ncc45)c(=O)c2n3C)cn1 [Compound 207] | 301 to 800 | 301 to 800 | > 800 | ≤ 1000
CN(c1csc(Cc2cnc(=O)[nH]c2)n1)c1ccnn(Cc2cccc3[nH]ncc23)c1=O [Compound 208] | > 800 | > 800 | > 800 | > 1000
Cn1c2nc(Cc3cc[nH]n3)sc2c2cnn(Cc3ccc4ccccc4c3)c(=O)c21 [Compound 210] | < 300 | < 300 | < 300 | ≤ 1000
Cn1c2nc(C(C(N)=O)c3cc[nH]n3)sc2c2cnn(Cc3cccc4[nH]ncc34)c(=O)c21 (stereo not drawn) [Compound 212] | < 300 | < 300 | < 300 | ≤ 1000
Cn1c2nc(Cc3cc[nH]n3)sc2c2cnn(Cc3cn4cccnc4n3)c(=O)c21 [Compound 213] | 301 to 800 | 301 to 800 | 301 to 800 | ≤ 1000
Cn1c2nc(Cc3cnn[nH]3)sc2c2cnn(Cc3cccc4[nH]ncc34)c(=O)c21 [Compound 217] | < 300 | < 300 | < 300 | ≤ 1000
COc1ncccc1Cc1nc2c(s1)c1cnn(Cc3cccc4[nH]ncc34)c(=O)c1n2C [Compound 219] | < 300 | < 300 | < 300 | ≤ 1000
Cn1c2nc(Cc3ncsc3Br)sc2c2cnn(Cc3cccc4[nH]ncc34)c(=O)c21 [Compound 220] | < 300 | < 300 | < 300 | ≤ 1000
Cn1c2nc(Cc3nnco3)sc2c2cnn(Cc3cccc4[nH]ncc34)c(=O)c21 [Compound 221] | < 300 | < 300 | 301 to 800 | > 1000
Cn1c2nc(Cc3nccs3)sc2c2cnn(Cc3cccc4[nH]ncc34)c(=O)c21 [Compound 222] | < 300 | < 300 | < 300 | ≤ 1000
Cn1ncc2cc(Cn3ncc4c5sc(Cc6cc[nH]n6)nc5n(C)c4c3=O)ccc21 [Compound 224] | < 300 | < 300 | < 300 | ≤ 1000
Cn1c2nc(Cc3cccc4[nH]nnc34)sc2c2cnn(Cc3cccc4[nH]ncc34)c(=O)c21 [Compound 225] | < 300 | < 300 | < 300 | ≤ 1000
Cn1c2nc(Cc3cc[nH]n3)sc2c2cnn(Cc3ccc4c(c3)OCO4)c(=O)c21 [Compound 226] | < 300 | < 300 | < 300 | ≤ 1000
Cn1c2nc(Cc3cnc(N)s3)sc2c2cnn(Cc3cccc4[nH]ncc34)c(=O)c21 [Compound 229] | 301 to 800 | 301 to 800 | 301 to 800 | > 1000
Cn1c2nc(Cc3nc[nH]n3)sc2c2cnn(Cc3cccc4[nH]ncc34)c(=O)c21 [Compound 230] | < 300 | < 300 | < 300 | ≤ 1000
Cn1c2nc(Cc3cc(Cl)[nH]n3)sc2c2cnn(Cc3cccc4[nH]ncc34)c(=O)c21 [Compound 233] | < 300 | < 300 | < 300 | ≤ 1000
Cn1c2nc(Cc3cc(F)[nH]n3)sc2c2cnn(Cc3cccc4[nH]ncc34)c(=O)c21 [Compound 234] | < 300 | < 300 | < 300 | > 1000
Cn1c2nc(Cc3cc[nH]n3)sc2c2cnn(Cc3cccc4sc(N)nc34)c(=O)c21 [Compound 235] | < 300 | < 300 | < 300 | ≤ 1000
Cn1c2nc(Cc3cc[nH]n3)sc2c2cnn(Cc3ccc4scnc4c3)c(=O)c21 [Compound 237] | < 300 | < 300 | < 300 | ≤ 1000
Cn1c2nc(Cc3n[nH]cc3Cl)sc2c2cnn(Cc3cccc4[nH]ncc34)c(=O)c21 [Compound 244] | < 300 | < 300 | < 300 | ≤ 1000
Cn1c2nc(Cc3cc[nH]n3)sc2c2cnn(Cc3cccc4[nH]ccc34)c(=O)c21 [Compound 246] | < 300 | < 300 | < 300 | ≤ 1000
Cn1c2nc(Cc3cc[nH]n3)sc2c2cnn(Cc3ccc(O)c(N)c3)c(=O)c21 [Compound 256] | < 300 | < 300 | < 300 | ≤ 1000
Cn1c2nc(Cc3ccccn3)sc2c2cnn(Cc3ccccc3)c(=O)c21 [Compound 263] | < 300 | < 300 | < 300 | ≤ 1000

Reference: US11957680B2, “Pyruvate kinase activators for use in treating blood disorders” (Agios Pharmaceuticals, Inc., priority 2017, dated 2024)
